Source: patent US6162798A, “Inhibitor of atherosclerotic intimal thickening” (priority 1991, dated 2000)

What was measured:
leukemic cells (HL-60) = test: Inhibitory effects against adhesion of leukemic cells (HL-60) induced by TPA; format: cell-based; conditions: Homo sapiens, HL-60, TPA-induced, 48 hours pretreatment; for inhibition at 10 µM: drug concentration 10^-5 M
Method: The inhibitory effects of the compounds in the present invention on cell adhesion of HL-60 were measured by the following methods. HL-60 cells were cultured in a RPMI 1640 medium containing 10% of FBS and an antibiotic at 37° C. in an atmosphere comprising 95% of air and 5% of carbon dioxide and then seeded to a 6 well multi-well plate in an amount of 2 ml per well at a cell density of 1,000,000/ml. A test compound dissolved in DMSO was added so that the final DMSO concentration would be 0.2%, and incubation was carried out for 48 hours for pretreatment. Then, 500,000 cells were seeded to a 24 well multi-well plate, and 0.02 mM of phorbol myristate acetate (TPA) dissolved in ethanol, was added in an amount of 1/250 (v/v) of the culture medium, and then culture was continued for 12 hours. After that, the cells were washed with PBS and the cells attached to the well plates were scraped off by trypsinization and suspended in Isoton, and the number of cells were counted by a Coulter counter. A control test was carried out by adding DMSO alone.

[1] = tested on: aortic intimal smooth muscle cells (I-SMC); test: Inhibitory effects on proliferation of aortic intimal smooth muscle cells (cell count); format: cell-based, atherosclerotic Japanese white rabbit; conditions: Oryctolagus cuniculus, fold increase of cell number second to fifth day, read-out: Inhibition (%) Intima; for inhibition at 10 µM: drug concentration 10^-5 M; for inhibition at 1 µM: drug concentration 10^-6 M
Method: (§1) The inhibitory effects of the compounds of the present invention on the proliferation of I-SMC and M-SMC were measured by the following methods. […] After twice or three times subculture of cells, the cells in the state of confluency were trypsinized and suspended in the above medium so that the cell density would be 20,000 cells/ml. Then, the 10,000 cells were seeded and cultured on a 24 well multi-well plate. After incubation for 6 hours, the medium was replaced by 0.5 ml of a control medium or a medium containing a test compound. At the same time, the number of cells initially attached to the plate was counted and taken as the initial cell number (I). The test compound was added to the medium as described in Example 1. As the control, DMSO was added alone so that the final concentration would be 0.2%. The medium change was carried out every 2 days, and on the first, second, third, fifth and seventh days, the cells were trypsinized and suspended in Isoton and counted cell number by a Coulter counter. The obtained results were represented by an average number of cells of three wells in each case, and the inhibition (%) of the fold increase of the cell number from the second day to the fifth day was calculated in accordance with the following formula.

[2] = tested on: J774 macrophages (J774-M.phi.); test: Inhibitory effects against adhesion of J774 macrophages; format: cell-based; conditions: Mus musculus, 48 hours pretreatment; for inhibition at 10 µM: drug concentration 10^-5 M; for inhibition at 1 µM: drug concentration 10^-6 M
Method: The inhibitory effects of the compounds in the present invention on cell adhesion of J774-M.phi. were measured by the following methods. […] Then, culture was continued with a control medium containing 0.2% of DMSO or with a medium containing a test compound for 48 hours as pretreatment. Then, the cells were scraped by means of a rubber policeman and suspended in the above medium. 200,000 cells were seeded to a 24 well multi-well plate., and cultured for 12 hours. After that, the cells attached to the well plates were scraped by a rubber policeman, and the number of cells was counted by a Coulter counter. The obtained results are represented by an average value of the number of cells in three wells at the time of the pretreatment, in each case, and the inhibition (%) on the adhesion was calculated in accordance with the following formula.

[3] = tested on: aortic medial smooth muscle cells (M-SMC); test: Inhibitory effects on proliferation of aortic medial smooth muscle cells (cell count); format: cell-based, healthy Japanese white rabbit; conditions: Oryctolagus cuniculus, fold increase of cell number second to fifth day, read-out: Inhibition (%) Media; for inhibition at 10 µM: drug concentration 10^-5 M; for inhibition at 1 µM: drug concentration 10^-6 M
Method: as §1

[4] = tested on: aortic medial smooth muscle cells (M-SMC); test: Inhibitory effects on migration of aortic medial smooth muscle cells (Boyden's chamber); format: cell-based, Sprague Dawley male rat; conditions: migration of rat M-SMC, drug concentration 10^-5 M, 4 hours
Method: The inhibitory effects of the compounds of the present invention on migration of M-SMC were measured by the following methods. Arterial medial slices of the thoracic of aorta of a Sprague Dawley male rat were cultured by using a medium of Dulbecco's Modified Eagle (DME) containing 10% fetal bovine serum (FBS) at 37° C. in an atmosphere comprising 95% of air and 5% of carbon dioxide for 3 or 4 weeks. The aortic medial smooth muscle cells grown from the arterial medial slices were subcultured by 1:2 split of cell density for stable subculture. After the three or four times subculture, the cells in the state of confluency were subjected to trypsinized and then suspended in the above medium at a cell density of 500,000 cells per ml. To the cell suspension, a test compound dissolved in dimethylsulfoxide (DMSO) was added so that the final DMSO concentration would be 0.2%, and the cell suspension was pre-incubated at 37° C. for 30 minutes. As a control, DMSO was added alone at the same concentration. In the lower compartment of Boyden's chamber partitioned with a nitrocellulose membrane, 10 ng/ml of a platelet-derived growth factor (PDGF) or DME medium containing a 10% SMC-conditioned DME medium (SMC-CM) obtained from 48 hours conditioning was filled as a migration factor. In the upper compartment thereof, 1 ml of the cell suspension was loaded, and incubation was conducted at 37° C. for 4 hours in a culture condition. As the blank, the DME medium without migration factor was filled in the lower compartment. After 4 hour incubation, the cells adhered to the upper side of the nitrocellulose membrane were removed, and the cells migrated to the lower side of the membrane were fixed and stained by Diff Quik. The number of migrated cells was counted in the 10 fields by a light microscope at 400 x HPF.

[5] = tested on: aortic medial smooth muscle cells (M-SMC); test: Inhibitory effect on 3H-thymidine uptake in aortic medial smooth muscle cells; format: cell-based, healthy Japanese white rabbit; conditions: Oryctolagus cuniculus, 24 hours with compound, read-out: Inhibition (%) Media; for inhibition at 10 µM: drug concentration 10^-5 M; for inhibition at 1 µM: drug concentration 10^-6 M
Method: (§2) The inhibitory effects of the compound of the present invention on ^3 H-thymidine uptake in I-SMC and M-SMC were measured by the following methods. M-SMC and I-SMC are obtained from aortic media of a healthy Japanese white rabbit and from aortic intima of an atherosclerotic Japanese white rabbit as mentioned in Example 2. After three or four times subculture, the cells in the state of confluency were trypsinized and suspended in a DME medium containing 10% of FBS and an antibiotic so that the cell density would be 40,000 cells/ml. The 10,000 cells were seeded to a 48 well multi-well plate. After 4 days culture, the medium was replaced by the control medium or the medium containing a test compound as used in Example 2, and culture was continued for 24 hours. Then, 1 μCi ([…]) of ^3 H-thymidine was added thereto, and culture was continued for 3 hours. The cells were washed three times with a phosphate buffered physiological saline (PBS) and treated with chilled 5% trichloroacetic acid (TCA). The insoluble-fraction was washed with chilled TCA and then dissolved in a 0.5N potassium hydroxide aqueous solution. The ^3 H radioactivity was measured by a liquid scintillation counter and the protein content was measured. […] The inhibition (%) was calculated in accordance with the following formula.

[6] = tested on: aortic intimal smooth muscle cells (I-SMC); test: Inhibitory effect on 3H-thymidine uptake in aortic intimal smooth muscle cells; format: cell-based, atherosclerotic Japanese white rabbit; conditions: Oryctolagus cuniculus, 24 hours with compound, read-out: Inhibition (%) Intima; for inhibition at 10 µM: drug concentration 10^-5 M; for inhibition at 1 µM: drug concentration 10^-6 M
Method: as §2

[7] = migration factor 10 ng/ml PDGF, read-out: Inhibition (%) PDGF
[8] = migration factor 10% SMC-conditioned medium, read-out: Inhibition (%) SMC-CM

CCc1c(C)sc2nc(C3CC3)c(/C=C/[C@@H]3C[C@@H](O)CC(=O)O3)c(-c3ccc(F)cc3)c12 (relative stereo) [Test compound 3, (E)-trans-6-(2'-[2'-cyclopropyl-5'-ethyl-3'-(4'"-fluorophenyl)-6'-methylthieno[2,3-b]pyridin-3'-yl]ethenyl)-4-hydroxy-3,4,5,6-tetrahydro-2H-pyran-2-on] gave an inhibition at 10 µM (leukemic cells (HL-60)) of 96.4%, an inhibition at 1 µM (leukemic cells (HL-60); drug concentration 10^-6 M) of 92.2% and an inhibition at 0.1 µM (leukemic cells (HL-60); drug concentration 10^-7 M) of 4.8%. It also gave an inhibition at 10 µM [1] of 100%, an inhibition at 1 µM [1] of 100% and an inhibition at 10 µM [2] of 92.4%. It also gave an inhibition at 1 µM [2] of 92.2%, an inhibition at 10 µM [3] of 100% and an inhibition at 1 µM [3] of 31.5%. The inhibition at 10 µM [4, 7] was 100%, the inhibition at 10 µM [4, 8] was 41.7% and the inhibition at 10 µM [5] was 92.2%. The inhibition at 1 µM [5] was 53.6%, the inhibition at 10 µM [6] was 94.1% and the inhibition at 1 µM [6] was 69.9%.

Work on CC[C@H](C)C(=O)O[C@H]1C[C@H](O)C=C2C=C[C@H](C)[C@H](CC[C@@H](O)C[C@@H](O)CC(=O)O)[C@H]21 [Pravastatin, reference compound] yielded an inhibition at 10 µM (leukemic cells (HL-60)) of -2.8%, an inhibition at 10 µM [1] of 1.3% and an inhibition at 1 µM [1] of 1.3%. For the same molecule, the inhibition at 10 µM [2] was 41.3%, the inhibition at 1 µM [2] was 40% and the inhibition at 10 µM [3] was -11.7%. The inhibition at 1 µM [3] was 8.7%, the inhibition at 10 µM [4, 7] was 61.8% and the inhibition at 10 µM [4, 8] was 26.2%. The inhibition at 10 µM [5] was -34.3%, the inhibition at 1 µM [5] was 8.7% and the inhibition at 10 µM [6] was -7.2%. The inhibition at 1 µM [6] was -7%.

Work on Cc1nn(C)c2nc(C3CC3)c(/C=C/[C@@H]3C[C@@H](O)CC(=O)O3)c(-c3ccc(F)cc3)c12 (relative stereo) [Test compound 2, (E)-trans-6-(2'-[6"-cyclopropyl-1',3'-dimethyl-4'-(4'"-fluorophenyl)pyrazolo[3,4-b]pyridin-5"-yl]ethenyl)-4-hydroxy-3,4,5,6-tetrahydro-2H-pyran-2-one] yielded an inhibition at 10 µM [1] of 98.2%, an inhibition at 1 µM [1] of 84.6% and an inhibition at 10 µM [3] of 86.5%. For the same molecule, the inhibition at 1 µM [3] was 4.7%, the inhibition at 10 µM [4, 7] was 98.2% and the inhibition at 10 µM [4, 8] was 32.8%. It also gave an inhibition at 10 µM [5] of 88.4%, an inhibition at 1 µM [5] of 36.4% and an inhibition at 10 µM [6] of 91.5%. It also gave an inhibition at 1 µM [6] of 11.7%.
